In patent US12077503B2, “Substituted cyclic amides and their use as herbicides” (FMC CORPORATION, priority 2015, dated 2024):

What was measured:
Type in all cases: in vivo
[1] = tested on: barnyardgrass (Echinochloa crus-galli); assay: Test G Pre-Emergence Protocol; conditions: Echinochloa crus-galli, pre-emergence, 312 h, evaluated after 13 days; for pest or weed control at 15.625 g/ha: 15.625 g ai/ha; for pest or weed control at 15.625 g/ha / pest or weed control at 250 g/ha: read-out: Barnyardgrass damage rating (100=total damage to plant; 0=no damage to plant); for pest or weed control at 62.5 g/ha: 62.5 g ai/ha, 100=total damage to plant, 0=no damage to plant, read-out: Barnyardgrass damage rating; for pest or weed control at 250 g/ha: 250 g ai/ha
In short: (§1)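 Visual injury (0–100) at day 13 after a single pre-emergence spray. Rates: 15.625, 62.5, 250 g/ha in acetone–water 50:50 with 0.5% Tween 20. Growth conditions: 24/16° C, 14 h light, 65% humidity.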

corn (Zea mays) [2] = assay: Test G Pre-Emergence Protocol; conditions: Zea mays, pre-emergence, 312 h, evaluated after 13 days; for plant injury at 15.625 g/ha: 15.625 g ai/ha; for plant injury at 15.625 g/ha / plant injury at 250 g/ha: read-out: Corn damage rating (100=total damage to plant; 0=no damage to plant); for plant injury at 62.5 g/ha: 62.5 g ai/ha, 100=total damage to plant, 0=no damage to plant, read-out: Corn damage rating; for plant injury at 250 g/ha: 250 g ai/ha
In short: as §1

[3] = tested on: giant foxtail (Setaria faberi); assay: Test G Pre-Emergence Protocol; conditions: Setaria faberi, pre-emergence, 312 h, evaluated after 13 days; for pest or weed control at 15.625 g/ha: 15.625 g ai/ha; for pest or weed control at 15.625 g/ha / pest or weed control at 250 g/ha: read-out: Foxtail, Giant damage rating (100=total damage to plant; 0=no damage to plant); for pest or weed control at 62.5 g/ha: 62.5 g ai/ha, 100=total damage to plant, 0=no damage to plant, read-out: Foxtail, Giant damage rating; for pest or weed control at 250 g/ha: 250 g ai/ha
In short: as §1

[4] = tested on: ivy-leaved morning glory (Ipomoea hederacea); assay: Test G Pre-Emergence Protocol; conditions: Ipomoea, pre-emergence, 312 h, evaluated after 13 days; for pest or weed control at 15.625 g/ha: 15.625 g ai/ha; for pest or weed control at 15.625 g/ha / pest or weed control at 250 g/ha: read-out: Morningglory, Ivy-leaved damage rating (100=total damage to plant; 0=no damage to plant); for pest or weed control at 62.5 g/ha: 62.5 g ai/ha, 100=total damage to plant, 0=no damage to plant, read-out: Morningglory, Ivy-leaved damage rating; for pest or weed control at 250 g/ha: 250 g ai/ha
In short: as §1

[5] = tested on: redroot pigweed (Amaranthus retroflexus); assay: Test G Pre-Emergence Protocol; conditions: Amaranthus retroflexus, pre-emergence, 312 h, evaluated after 13 days; for pest or weed control at 15.625 g/ha: 15.625 g ai/ha; for pest or weed control at 15.625 g/ha / pest or weed control at 250 g/ha: read-out: Pigweed, Redroot damage rating (100=total damage to plant; 0=no damage to plant); for pest or weed control at 62.5 g/ha: 62.5 g ai/ha, 100=total damage to plant, 0=no damage to plant, read-out: Pigweed, Redroot damage rating; for pest or weed control at 250 g/ha: 250 g ai/ha
In short: as §1

[6] = tested on: velvetleaf (Abutilon theophrasti); assay: Test G Pre-Emergence Protocol; conditions: Abutilon theophrasti, pre-emergence, 312 h, evaluated after 13 days; for pest or weed control at 15.625 g/ha: 15.625 g ai/ha; for pest or weed control at 15.625 g/ha / pest or weed control at 250 g/ha: read-out: Velvetleaf damage rating (100=total damage to plant; 0=no damage to plant); for pest or weed control at 62.5 g/ha: 62.5 g ai/ha, 100=total damage to plant, 0=no damage to plant, read-out: Velvetleaf damage rating; for pest or weed control at 250 g/ha: 250 g ai/ha
In short: as §1

[7] = tested on: barnyardgrass (Echinochloa crus-galli); assay: Test G Post-Emergence Protocol; conditions: Echinochloa crus-galli, post-emergence, 312 h, read-out: Barnyardgrass damage rating; for pest or weed control at 15.625 g/ha: 15.625 g ai/ha, evaluated after 13 days (100=total damage to plant; 0=no damage to plant); for pest or weed control at 62.5 g/ha: 62.5 g ai/ha; for pest or weed control at 62.5 g/ha / pest or weed control at 250 g/ha: evaluated after 13 days, 100=total damage to plant, 0=no damage to plant; for pest or weed control at 250 g/ha: 250 g ai/ha
In short: (§2)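 Eight days post-sowing, plants received a spray of test compound (acetone/water 50:50, 0.5% Tween 20) at 15.625, 62.5 or 250 g/ha. Glasshouse regime thereafter: 24/16 °C, 14 h light, 65% humidity. Assessment after 13 days on a 0–100 damage scale.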

corn (Zea mays) [8] = assay: Test G Post-Emergence Protocol; conditions: Zea mays, post-emergence, 312 h, read-out: Corn damage rating; for plant injury at 15.625 g/ha: 15.625 g ai/ha, evaluated after 13 days (100=total damage to plant; 0=no damage to plant); for plant injury at 62.5 g/ha: 62.5 g ai/ha; for plant injury at 62.5 g/ha / plant injury at 250 g/ha: evaluated after 13 days, 100=total damage to plant, 0=no damage to plant; for plant injury at 250 g/ha: 250 g ai/ha
In short: as §2

[9] = tested on: giant foxtail (Setaria faberi); assay: Test G Post-Emergence Protocol; conditions: Setaria faberi, post-emergence, 312 h, read-out: Foxtail, Giant damage rating; for pest or weed control at 15.625 g/ha: 15.625 g ai/ha, evaluated after 13 days (100=total damage to plant; 0=no damage to plant); for pest or weed control at 62.5 g/ha: 62.5 g ai/ha
In short: as §2

[10] = tested on: ivy-leaved morning glory (Ipomoea hederacea); assay: Test G Post-Emergence Protocol; conditions: Ipomoea, post-emergence, 312 h, read-out: Morningglory, Ivy-leaved damage rating; for pest or weed control at 15.625 g/ha: 15.625 g ai/ha, evaluated after 13 days (100=total damage to plant; 0=no damage to plant); for pest or weed control at 62.5 g/ha: 62.5 g ai/ha; for pest or weed control at 62.5 g/ha / pest or weed control at 250 g/ha: evaluated after 13 days, 100=total damage to plant, 0=no damage to plant; for pest or weed control at 250 g/ha: 250 g ai/ha
In short: as §2

[11] = tested on: redroot pigweed (Amaranthus retroflexus); assay: Test G Post-Emergence Protocol; conditions: Amaranthus retroflexus, post-emergence, 312 h, read-out: Pigweed, Redroot damage rating; for pest or weed control at 15.625 g/ha: 15.625 g ai/ha, evaluated after 13 days (100=total damage to plant; 0=no damage to plant); for pest or weed control at 62.5 g/ha: 62.5 g ai/ha; for pest or weed control at 62.5 g/ha / pest or weed control at 250 g/ha: evaluated after 13 days, 100=total damage to plant, 0=no damage to plant; for pest or weed control at 250 g/ha: 250 g ai/ha
In short: as §2

[12] = tested on: velvetleaf (Abutilon theophrasti); assay: Test G Post-Emergence Protocol; conditions: Abutilon theophrasti, post-emergence, 312 h, read-out: Velvetleaf damage rating; for pest or weed control at 15.625 g/ha: 15.625 g ai/ha, evaluated after 13 days (100=total damage to plant; 0=no damage to plant); for pest or weed control at 62.5 g/ha: 62.5 g ai/ha; for pest or weed control at 62.5 g/ha / pest or weed control at 250 g/ha: evaluated after 13 days, 100=total damage to plant, 0=no damage to plant; for pest or weed control at 250 g/ha: 250 g ai/ha
In short: as §2

[13] = evaluated after 13 days, 100=total damage to plant, 0=no damage to plant

Compound	pest or weed control at 15.625 g/ha [1]	pest or weed control at 62.5 g/ha [1]	pest or weed control at 250 g/ha [1]	plant injury at 15.625 g/ha (corn (Zea mays) [2])	plant injury at 62.5 g/ha (corn (Zea mays) [2])	plant injury at 250 g/ha (corn (Zea mays) [2])	pest or weed control at 15.625 g/ha [3]	pest or weed control at 62.5 g/ha [3]	pest or weed control at 250 g/ha [3]	pest or weed control at 15.625 g/ha [4]	pest or weed control at 62.5 g/ha [4]	pest or weed control at 250 g/ha [4]	pest or weed control at 15.625 g/ha [5]	pest or weed control at 62.5 g/ha [5]	pest or weed control at 250 g/ha [5]	pest or weed control at 15.625 g/ha [6]	pest or weed control at 62.5 g/ha [6]	pest or weed control at 250 g/ha [6]	pest or weed control at 15.625 g/ha [7]	pest or weed control at 62.5 g/ha [7]	also measured
CN1C[C@H](c2cc(F)cc(F)c2)[C@@H](C(=O)Nc2cnccc2C(F)(F)F)C1=O (racemic) [Compound 1741]	0%	40%	70%	0%	10%	30%	0%	90%	90%	0%	0%	0%	10%	20%	30%	0%	30%	60%	0%	0%	pest or weed control at 250 g/ha [7]: 70%; plant injury at 15.625 g/ha (corn (Zea mays) [8]): 0%; plant injury at 62.5 g/ha (corn (Zea mays) [8]): 0%; plant injury at 250 g/ha (corn (Zea mays) [8]): 0%; pest or weed control at 15.625 g/ha [9]: 50%; pest or weed control at 62.5 g/ha [9, 13]: 80%; pest or weed control at 15.625 g/ha [10]: 0%; pest or weed control at 62.5 g/ha [10]: 30%; pest or weed control at 250 g/ha [10]: 10%; pest or weed control at 15.625 g/ha [11]: 0%; pest or weed control at 62.5 g/ha [11]: 0%; pest or weed control at 250 g/ha [11]: 0%; pest or weed control at 15.625 g/ha [12]: 0%; pest or weed control at 62.5 g/ha [12]: 0%; pest or weed control at 250 g/ha [12]: 10%
CN1C[C@H](c2cccc(C(F)(F)F)c2)[C@@H](C(=O)Nc2cnccc2F)C1=O (racemic) [Compound 1745]	0%	0%	60%	0%	0%	0%	0%	10%	50%	0%	0%	10%	0%	0%	20%	0%	0%	0%	10%	70%	pest or weed control at 250 g/ha [7]: 80%; plant injury at 15.625 g/ha (corn (Zea mays) [8]): 0%; plant injury at 62.5 g/ha (corn (Zea mays) [8]): 0%; plant injury at 250 g/ha (corn (Zea mays) [8]): 0%; pest or weed control at 15.625 g/ha [9]: 10%; pest or weed control at 62.5 g/ha [9, 13]: 60%; pest or weed control at 250 g/ha ([9]; 250 g ai/ha, evaluated after 13 days, 100=total damage to plant, 0=no damage to plant): 70%; pest or weed control at 15.625 g/ha [10]: 0%; pest or weed control at 62.5 g/ha [10]: 30%; pest or weed control at 250 g/ha [10]: 40%; pest or weed control at 15.625 g/ha [11]: 0%; pest or weed control at 62.5 g/ha [11]: 0%; pest or weed control at 250 g/ha [11]: 20%; pest or weed control at 15.625 g/ha [12]: 0%; pest or weed control at 62.5 g/ha [12]: 0%; pest or weed control at 250 g/ha [12]: 0%
